Molecules are shown by their SMILES.

By Ki is commonly meant a measure of affinity in units of concentration, obtained from inhibition or displacement. Read a high Ki as weaker binding.

Test [1] can be described thus: Inhibition of human intestinal carboxylesterase.
The target in test [2] is Acetylcholinesterase (Homo sapiens, UniProt P22303). The test is described as follows: Inhibition of human acetylcholinesterase 1.
In test [3] the target is T1, Liver carboxylesterase 1 (Homo sapiens, UniProt P23141).
T1 sequence (P23141 whole entry): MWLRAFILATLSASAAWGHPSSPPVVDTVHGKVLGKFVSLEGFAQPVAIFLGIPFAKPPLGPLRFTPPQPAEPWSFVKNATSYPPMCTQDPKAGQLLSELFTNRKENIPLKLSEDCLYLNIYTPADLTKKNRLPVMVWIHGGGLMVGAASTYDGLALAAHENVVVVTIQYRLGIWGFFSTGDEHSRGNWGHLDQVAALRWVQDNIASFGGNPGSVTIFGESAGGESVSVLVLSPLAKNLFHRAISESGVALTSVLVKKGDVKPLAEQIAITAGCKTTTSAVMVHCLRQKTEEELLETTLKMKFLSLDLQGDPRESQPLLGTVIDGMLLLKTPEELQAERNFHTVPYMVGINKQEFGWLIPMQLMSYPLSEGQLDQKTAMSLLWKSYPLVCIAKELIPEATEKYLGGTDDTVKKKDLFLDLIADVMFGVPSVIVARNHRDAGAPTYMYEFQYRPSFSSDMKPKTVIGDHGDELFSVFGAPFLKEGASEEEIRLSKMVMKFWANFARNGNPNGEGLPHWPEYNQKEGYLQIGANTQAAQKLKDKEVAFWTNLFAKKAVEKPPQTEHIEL
The test is described as follows: Inhibition of human carboxylesterase 1.

The target in test [4] is Cholinesterase (Homo sapiens, UniProt P06276). The test is described as follows: Inhibition of human butyrylcholinesterase.
Sequence of Cholinesterase (P06276 whole entry): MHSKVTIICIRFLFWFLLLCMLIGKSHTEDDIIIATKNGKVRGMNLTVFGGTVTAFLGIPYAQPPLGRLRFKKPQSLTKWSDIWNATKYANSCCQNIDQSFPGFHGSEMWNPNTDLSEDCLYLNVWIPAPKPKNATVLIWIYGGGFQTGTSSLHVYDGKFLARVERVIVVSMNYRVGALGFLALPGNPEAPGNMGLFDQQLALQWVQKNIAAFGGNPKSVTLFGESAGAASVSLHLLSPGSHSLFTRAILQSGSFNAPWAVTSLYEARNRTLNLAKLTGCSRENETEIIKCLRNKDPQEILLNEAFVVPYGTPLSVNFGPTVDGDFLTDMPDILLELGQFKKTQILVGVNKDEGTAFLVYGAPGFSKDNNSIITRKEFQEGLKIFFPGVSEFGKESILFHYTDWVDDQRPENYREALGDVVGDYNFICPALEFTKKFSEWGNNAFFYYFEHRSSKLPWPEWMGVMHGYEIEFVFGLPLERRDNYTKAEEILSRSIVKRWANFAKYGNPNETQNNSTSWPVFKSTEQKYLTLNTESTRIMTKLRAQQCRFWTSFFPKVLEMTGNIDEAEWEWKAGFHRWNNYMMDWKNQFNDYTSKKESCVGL

Sequence of Acetylcholinesterase (P22303 whole entry): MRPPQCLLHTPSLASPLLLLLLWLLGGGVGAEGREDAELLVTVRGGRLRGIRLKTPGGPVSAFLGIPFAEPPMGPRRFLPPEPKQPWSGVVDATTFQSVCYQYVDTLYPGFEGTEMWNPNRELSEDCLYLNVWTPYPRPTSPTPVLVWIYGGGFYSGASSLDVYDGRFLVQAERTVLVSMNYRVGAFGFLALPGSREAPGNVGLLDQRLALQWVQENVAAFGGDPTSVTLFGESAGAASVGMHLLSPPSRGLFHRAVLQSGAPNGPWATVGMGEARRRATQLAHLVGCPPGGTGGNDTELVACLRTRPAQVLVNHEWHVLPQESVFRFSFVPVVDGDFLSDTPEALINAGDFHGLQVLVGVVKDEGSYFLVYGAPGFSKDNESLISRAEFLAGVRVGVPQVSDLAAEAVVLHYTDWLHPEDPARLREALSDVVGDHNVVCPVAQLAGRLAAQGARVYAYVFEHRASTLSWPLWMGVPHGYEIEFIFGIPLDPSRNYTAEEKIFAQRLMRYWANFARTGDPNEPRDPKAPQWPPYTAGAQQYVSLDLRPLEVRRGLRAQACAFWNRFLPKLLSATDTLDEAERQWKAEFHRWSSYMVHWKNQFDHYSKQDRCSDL

In the case of `O=C(C(=O)C1CCCCC1)C1CCCCC1`, the Ki was 0.005 µM in test [1], greater than 100 µM in test [2], 0.072 µM in test [3] and greater than 100 µM in test [4].

Take `O=C1Cc2ccccc2C1=O`: the inhibitory constant (Ki) was 5.47 µM in test [1], greater than 100 µM in test [2], 5.24 µM in test [3] and 2.63 µM in test [4].

For the compound `O=C1C(=O)c2ccc([N+](=O)[O-])c3c([N+](=O)[O-])ccc1c23`, the Ki turned out to be 0.62 µM in test [1], 0.903 µM in test [2], 0.57 µM in test [3] and 3.1 µM in test [4].

As to `O=C1C(=O)c2cccc3c2N(CCC3)C1=O`, the Ki in test [1] is greater than 100 µM; in test [2] it was greater than 100 µM; in test [3], 5.38 µM; in test [4], greater than 100 µM.

As to `COc1ccccc1C(=O)C(=O)c1ccccc1OC`, the inhibitory constant (Ki) in test [1], in test [3] and in test [4] was greater than 100 µM in each case.

With `O=C1C(=O)c2c3ccccc3cc3cccc1c23`, the Ki is 0.0077 µM in test [1], greater than 100 µM in test [2], 0.0015 µM in test [3] and greater than 100 µM in test [4].

Consider `O=C1C(=O)c2cccnc2-c2ncccc21`, for which the Ki in test [1] was greater than 100 µM; in test [2], greater than 100 µM; in test [3] it was 5.4 µM; in test [4], greater than 100 µM.

On to `COc1ccc(C(=O)C(=O)c2ccc(C(=O)O)cc2)cc1`, for which the Ki in test [2] and in test [4] was greater than 100 µM in each case.

Turning to `O=C1C(=O)c2ccccc2CCc2ccccc21`, the Ki in test [1] is 6.15 µM; in test [2], greater than 100 µM; in test [3], 2.98 µM; in test [4] it was greater than 100 µM.

`CCOc1ccc(C(=O)C(=O)c2ccc(OCC)cc2)cc1`: the Ki was 1.42 µM in test [1], greater than 100 µM in test [2], greater than 100 µM in test [3] and greater than 100 µM in test [4].

Take `O=C(C(=O)c1ccc([N+](=O)[O-])cc1)c1ccc([N+](=O)[O-])cc1`: the inhibition constant Ki in test [1] is 0.47 µM; in test [2], greater than 100 µM; in test [3], 9.8 µM; in test [4], greater than 100 µM.

As for `Cc1cc(C)c(C(=O)C(=O)c2c(C)cc(C)cc2C)c(C)c1`, the Ki is 4.04 µM in test [1], greater than 100 µM in test [2], greater than 100 µM in test [3] and greater than 100 µM in test [4].

With `O=C1C(=O)N2CCCc3cccc1c32`, the Ki in test [1] is 4.13 µM; in test [2] it was greater than 100 µM; in test [3] it was 1.54 µM; in test [4], greater than 100 µM.

With `O=C1C(=O)c2sccc2-c2ccsc21`, the Ki was 0.85 µM in test [1], greater than 100 µM in test [2], 0.15 µM in test [3] and greater than 100 µM in test [4].

On to `O=C1C(=O)c2cc([N+](=O)[O-])ccc2-c2ccccc21`, for which the Ki in test [1] turned out to be 0.107 µM; in test [2], 0.85 µM; in test [3] it was 0.0159 µM; in test [4] it was 1.67 µM.

As to `CC1(C)[C@@H]2CC[C@]1(C)C(=O)C2=O` (racemic), the Ki in test [1], in test [2], in test [3] and in test [4] was greater than 100 µM in each case.

As for `O=C1C=Cc2ccccc2C1=O` [1,2-NAPHTHOQUINONE], the Ki stood at 2.4 µM in test [1], 0.32 µM in test [2], 0.93 µM in test [3] and 2.29 µM in test [4].

`O=C1C(=O)c2ccccc2-c2ccccc21` [9,10-PHENANTHRENEQUINONE]: the Ki was greater than 100 µM in test [2], 0.0025 µM in test [3] and 0.19 µM in test [4].

Regarding `O=C1C(=O)c2cccc3cccc1c23` [ACENAPHTHOQUINONE], the Ki is greater than 100 µM in test [2], 0.031 µM in test [3] and 2.97 µM in test [4].

These data come from ChEMBL document CHEMBL1138234, “Planarity and constraint of the carbonyl groups in 1,2-diones are determinants for selective inhibition of human carboxylesterase 1” (J Med Chem, 2007).
